Work on `CCn1ncnc1COc1nn2c(-c3c(F)cccc3F)nnc2cc1C(C)(C)C` [Example 3, 3-(2,6-Difluorophenyl)-7-(1,1-dimethylethyl)-6-(2-ethyl-2H-1,2,4-triazol-3-ylmethoxy)-1,2,4-triazolo[4,3-b]pyridazine] yielded a melting point of 182 °C.

Source: US6500828B1, “Triazolo-pyridazine derivatives as ligands for gaba receptors” (Merck Sharp & Dohme Ltd., priority 1999, dated 2002)
